Results: patent publication US12410157B2, “Compound useful as toll-like receptor 7 activation inhibitor” (TOYAMA PREFECTURAL UNIVERSITY, priority 2020, dated 2025)

Legend:
[1] = Plasma concentration in mouse model of systemic lupus erythematosus after oral administration; assay type: in vivo; details: NZBWF1 mice, 5 mg/kg orally
Procedure: Plasma concentrations of B2-24-4-5A·HCOOH were determined after oral administration of B2-24-4-5A·HCOOH in a mouse model of systemic lupus erythematosus (NZBWF1, 20 weeks old, female). 5 mg/kg of B2-24-4-5A·HCOOH was administered orally to NZBWF1 mice. After 0.5, 1, 2, 4, 8, 16, or 24 hours, blood was collected from NZBWF1 mice to prepare plasma. The concentration of B2-24-4-5A·HCOOH in the plasma was determined by LC/MS/MS.

mouse TLR7 = target: T1, mouse TLR7 (Mus musculus, UniProt P58681); experiment: Inhibition of TLR7 activation in mouse TLR7-expressing NF-κB-GFP reporter Ba/F3 cells; assay type: cell-based; details: Example 5, Table 5; method of Example 2; read-out: IC50
T1 construct: expressed in transfected cells; host or cells: Ba/F3 cells (provided by Prof. Kensuke Miyake, University of Tokyo)
T1 sequence (P58681 27-1050): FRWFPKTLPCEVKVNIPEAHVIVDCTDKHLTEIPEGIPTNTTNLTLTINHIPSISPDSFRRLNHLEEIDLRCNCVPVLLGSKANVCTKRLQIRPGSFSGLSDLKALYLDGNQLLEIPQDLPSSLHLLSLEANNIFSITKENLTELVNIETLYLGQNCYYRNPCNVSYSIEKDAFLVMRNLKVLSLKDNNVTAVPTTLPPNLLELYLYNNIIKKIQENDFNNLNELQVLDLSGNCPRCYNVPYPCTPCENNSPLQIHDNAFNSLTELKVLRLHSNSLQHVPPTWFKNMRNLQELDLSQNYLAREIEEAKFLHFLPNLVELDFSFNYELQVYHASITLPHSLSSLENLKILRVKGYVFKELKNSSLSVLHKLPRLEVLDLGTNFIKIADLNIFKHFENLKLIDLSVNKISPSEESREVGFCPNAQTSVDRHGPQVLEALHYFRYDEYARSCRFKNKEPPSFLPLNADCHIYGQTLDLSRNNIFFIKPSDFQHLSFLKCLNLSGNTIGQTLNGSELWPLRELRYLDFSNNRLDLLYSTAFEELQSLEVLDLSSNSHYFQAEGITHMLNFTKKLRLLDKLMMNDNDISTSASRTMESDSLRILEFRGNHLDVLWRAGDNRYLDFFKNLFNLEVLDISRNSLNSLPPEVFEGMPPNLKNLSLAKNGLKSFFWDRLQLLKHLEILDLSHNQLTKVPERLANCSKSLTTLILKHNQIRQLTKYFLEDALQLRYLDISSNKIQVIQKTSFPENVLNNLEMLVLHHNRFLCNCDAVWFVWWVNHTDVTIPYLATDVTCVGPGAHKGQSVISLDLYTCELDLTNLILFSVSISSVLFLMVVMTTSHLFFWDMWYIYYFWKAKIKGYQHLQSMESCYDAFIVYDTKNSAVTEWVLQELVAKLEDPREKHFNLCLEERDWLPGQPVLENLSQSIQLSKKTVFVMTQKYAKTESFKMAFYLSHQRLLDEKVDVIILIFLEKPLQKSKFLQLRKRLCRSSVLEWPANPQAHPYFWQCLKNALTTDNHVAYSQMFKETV
Excerpt: Mouse TLR7-expressing reporter cells (Ba/F3 cells) were used to evaluate inhibition of TLR7 activation in each derivative and CB-7. These cells were provided by Professor Kensuke Miyake (Department of Infection Genetics, Institute of Medical Science, University of Tokyo). These cells have been transfected with a reporter gene that connects GFP gene downstream of the promoter region of NF-κB. Therefore, the expression of GFP is enhanced by the addition of a ligand for TLR7 expressed by the cells. The fluorescence intensity of GFP was attenuated by the addition of each derivative, and the inhibition of TLR7 activation by each derivative was evaluated as an indicator.
Loxoribine (Alexis Biochemicals) was used as the ligand for mouse TLR7. Gardiquimod (Invivogen) was used as the ligand for human TLR7.
Ba/F3 cells cultured in RPMI 1640 medium containing 10% (v/v) fetal calf serum (FCS), 50 U/mL penicillin, 50 μg/mL streptomycin, 2 mM L-glutamine, […] 2-mercaptoethanol, 1 ng/mL interleukin-3 were aliquoted into 96-well plates so that the number of cells per well was 1.0×10^5 cells/100 μL. 50 μL of each derivative or CB-7, prepared to final concentrations of 1, 5, 10, 25, 50, and 100 µM, was added to each well. 96-well plates were incubated at 37° C. for 30 minutes in the presence of 5% CO2. Next, 250 μg/mL Roxoribin was added to each well and incubated for 18 hours. At the end of incubation, cells were washed with PBS (FACS buffer) containing 2.5% (v/v) FCS and suspended in 200 μL of FACS buffer containing 25 μg/mL […] for each cell. GFP fluorescence intensities of the cells were analyzed by flow cytometry. Flow cytometry measurement was performed on a FACSCanto™ II (Becton Dickinson) and data were analyzed with FlowJo software (Tree Star). The MFI (%) upon stimulation with roxoribin in the presence of […] derivatives or CB-7 was calculated using the MFI upon stimulation with roxoribin alone as 100%, and then IC50 (chemical compound concentration that inhibits activity by 50%) was calculated by logistic regression analysis.
The evaluation of the TLR7 activation inhibition by B2-24-4-5A·HCOOH was performed by the method described in Example 2. CB-7 and B2-24-4·HCl were used as controls.

[2] = Plasma concentration in normal mice after oral administration; assay type: in vivo, mice (C57BL/6N); details: C57BL/6N mice, 1 mg orally
Procedure: Plasma concentrations of CB-7 or B2-24-4-5A·HCOOH were measured in normal mice (C57BL/6N, 11 weeks old, female) after oral administration. 1 mg of CB-7 or B2-24-4-5A·HCOOH was administered orally to mice C57BL/6N. After 0.5, 1, 2, 4, or 8 hours, blood was collected from mice C57BL/6N to prepare plasma. The concentration of CB-7 or B2-24-4-5A·HCOOH in the plasma was measured by LC/MS/MS.

[3] = female, mouse, plasma, po, LC/MS/MS

For `C=C(C)[C@@H]1CC[C@]2(COC(=O)C2)C[C@H]1c1ccc(CN2CCNCC2)cc1` [B2-24-4-5A·HCOOH], the “Plasma level after 8 hours” value [1] was “near-bottom level”, the concentration at 0.5 h [1, 3] was 88.1 ng/mL and the IC50 (mouse TLR7) was 167 nM. For the same molecule, the “Persistence in plasma compared to CB-7” value [2] was “remains in plasma for a longer time than CB-7” and the concentration at 8 h [2, 3] was ~500 ng/mL.
